Laboratory results: US5436243A, “Aminoanthraquinone derivatives to combat multidrug resistance” (priority 1993, dated 1995)
“Also recorded” adds a separate entry of the source.

Columns and labels:
[1] = test system: MCF7 Adr 10 human breast cancer cells; assay: Vinblastine accumulation assay, MCF7 Adr 10; format: cell-based
Protocol: [^3 H] vinblastine ([^3 H] VLB) was added to a final concentration of 100 nM and the cells were incubated for 2.5 hours. At this time, the cells were washed 3 times in ice cold PBS and lysed in buffer containing 0.1% Triton X-100. Net accumulation of [^3 H] vinblastine was expressed as pmol/mg protein. In [^3 H]

[2] = test system: A704 human renal cell line; assay: Vinblastine accumulation assay, A704; format: cell-based; details: 10 μM, 10 nM [3H] vinblastine
Protocol: (§1) These cell lines are models of intrinsic resistance.
(§2) [^3 H] vinblastine was added to a final concentration of 10 nM and the cells were incubated for 2.5 hours. At this time, the cells were washed 3 times in ice cold PBS and lysed in buffer containing 0.1% Triton X-100.

[3] = test system: UOK-39 human renal cell line; assay: Vinblastine accumulation assay, UOK-39; format: cell-based; details: 10 μM, 10 nM [3H] vinblastine
Protocol: as §1, §2

[4] = test system: MCF7 Adr 10; assay: 72 hour MTT proliferation assay, reversal of drug resistance in MCF7 Adr 10; format: cell-based, human
Protocol: (§3) In 72 hour MTT proliferation assays using the following method, compounds 1b, 1c and 1d were assessed for inhibition of Vinca alkaloid and anthracycline drug resistance in MDR MCF7. Additionally, compounds 1b and 1c were assessed for potentiation of sensitivity to Vinca alkaloid and anthracycline drugs in the parental MCF7 WT cell line.
(§4) METHOD: 5000 cells per well were plated in 100 μl of IMDM containing 10% FCS and allowed to adhere overnight. The following day the cells were treated with N-substituted 1,4-diaminoanthraquinones and exposed to graded concentrations of antineoplastic agents. 50 μl of IMDM 10% FCS containing either vehicle or N-substituted 1,4-diaminoanthraquinones at 3 times the final tested concentration was added to cells at timed intervals. The plates were incubated for 2 hours at 37° C. to allow maximal cellular accumulation of N-substituted 1,4-diaminoanthraquinones. 40 μl aliquots of IMDM 10% FCS containing either vehicle or graded concentrations of antineoplastic drugs at 5 times the final concentration were added to treatment groups. Following this addition, 10 μl of IMDM 10% FCS containing either vehicle or N-substituted 1,4-diaminoanthraquinone at 5 times the final concentration was added to each group of wells. The cells were incubated for 72 hours after treatment. At this time the viable cells in each treatment group were estimated in a colorimetric assay by adding MTT and incubating the cells at 37° C. for 3-4 hours. The media in each well was aspirated and MTT formazan was solubilized in isopropyl alcohol acidified with 0.1 N HCl. The absorbance of the solubilized formazan was quantitated using a plate reader spectrophotometer. […] The concentrations of antineoplastic drugs which inhibited proliferation by 50% (IC50's) were estimated by calculating a percentage from the ratio: antineoplastic drug treated groups/control group absorbance and plotting the dose response curve on semilog paper. The IC50 was estimated from this curve. To assess the effects of inhibition of resistance by N-substituted 1,4-diaminoanthraquinones, the percentages were calculated relative to cell groups treated with resistance modifier alone and IC50's calculated as above. A reversal factor was calculated by dividing the IC50 to the antineoplastic drug alone (Control group) by the IC50 to antineoplastic drug in cells treated with resistance modifier.

[5] = test system: MCF7 WT; assay: 72 hour MTT proliferation assay, potentiation of sensitivity in MCF7 WT; format: cell-based, human; details: MCF7 WT
Protocol: as §3, §4

[6] = test system: P-glycoprotein; assay: Phosphorylation of P-glycoprotein in intact MCF7 Adr 10 cells; format: cell-based, human; details: MCF7 Adr 10, representative time course experiment, FIG. 12
From the text: (§5) The effects of compound 1c on phosphorylation of the P-glycoprotein and the MARCKS protein (myristoylated alanine-rich C kinase substrate) was studied in intact cells labeled with [^32 P] orthophosphate. The MARCKS protein (also known as the 80 to 87 kD protein) is observed to be rapidly phosphorylated subsequent to PKC activation by phorbol esters, cell permeant diacylglycerols, growth factor and hormonal stimulation in a variety of cell types from several species. […] In these experiments, phosphorylation of MARCKS was used as a marker of cellular PKC activity. The effects of 1c on phosphorylation states of the P-glycoprotein and MARCKS protein were studied to test the possibility that this compound may be inhibiting PKC in cells; due to metabolism to an active PKC inhibitor or by achieving inhibitory concentrations in the microenvironment of the P-glycoprotein.
(§6) METHOD: A monoclonal antibody to the P-glycoprotein, C219, was used to immunoprecipitate the P-glycoprotein and a polyclonal rabbit antibody was used to immunoprecipitate the MARCKS protein from extracts of cells labeled with [^32 P]. MARCKS was immunoprecipitated after preclearing the aliquot with normal rabbit IgG. MCF7 Adr 10 cells were labeled with [^32 P] orthophosphate for two hours. […] P-glycoprotein and MARCKS were immunoprecipitated from aliquots of the same sample containing equivalent radioactivity.

[7] = test system: MARCKS protein; assay: Phosphorylation of MARCKS in intact MCF7 Adr 10 cells; format: cell-based, human; details: MCF7 Adr 10, representative time course experiment, FIG. 12
From the text: as §5, §6

[8] = test system: casein kinase 2; assay: Casein kinase 2 inhibition; format: biochemical
From the text: One possible explanation for stimulation of phosphorylation of P-glycoprotein and MARCKS is that 1c may activate PKC or other cellular kinases by signal transduction pathways that have not yet been identified to phosphorylate these proteins. An alternative explanation for stimulation of phosphorylation of P-glycoprotein and MARCKS is that 1c inhibits protein phosphatases.

[9] = test system: MCF7 WT; assay: Tumor cell clonogenic assay, MCF7 WT; format: cell-based, human
Protocol: The tumor cell clonogenic assays measure clonal proliferation of tumor cells. In this assay, 300-500 cells are plated in 10 cm^2 wells, allowed to adhere overnight, and are treated the following day. Tumor cell colonies were counted after 10-12 days of culture. […] The IC50's are calculated as described above for the MTT proliferation assays.

[10] = test system: serine threonine kinases; assay: In vitro assays of serine threonine kinases; format: biochemical
[11] = target: P-glycoprotein in MCF7 Adr 10 membrane vesicles (Homo sapiens, UniProt P08183)
Chain of P-glycoprotein in MCF7 Adr 10 membrane vesicles (P08183 whole entry): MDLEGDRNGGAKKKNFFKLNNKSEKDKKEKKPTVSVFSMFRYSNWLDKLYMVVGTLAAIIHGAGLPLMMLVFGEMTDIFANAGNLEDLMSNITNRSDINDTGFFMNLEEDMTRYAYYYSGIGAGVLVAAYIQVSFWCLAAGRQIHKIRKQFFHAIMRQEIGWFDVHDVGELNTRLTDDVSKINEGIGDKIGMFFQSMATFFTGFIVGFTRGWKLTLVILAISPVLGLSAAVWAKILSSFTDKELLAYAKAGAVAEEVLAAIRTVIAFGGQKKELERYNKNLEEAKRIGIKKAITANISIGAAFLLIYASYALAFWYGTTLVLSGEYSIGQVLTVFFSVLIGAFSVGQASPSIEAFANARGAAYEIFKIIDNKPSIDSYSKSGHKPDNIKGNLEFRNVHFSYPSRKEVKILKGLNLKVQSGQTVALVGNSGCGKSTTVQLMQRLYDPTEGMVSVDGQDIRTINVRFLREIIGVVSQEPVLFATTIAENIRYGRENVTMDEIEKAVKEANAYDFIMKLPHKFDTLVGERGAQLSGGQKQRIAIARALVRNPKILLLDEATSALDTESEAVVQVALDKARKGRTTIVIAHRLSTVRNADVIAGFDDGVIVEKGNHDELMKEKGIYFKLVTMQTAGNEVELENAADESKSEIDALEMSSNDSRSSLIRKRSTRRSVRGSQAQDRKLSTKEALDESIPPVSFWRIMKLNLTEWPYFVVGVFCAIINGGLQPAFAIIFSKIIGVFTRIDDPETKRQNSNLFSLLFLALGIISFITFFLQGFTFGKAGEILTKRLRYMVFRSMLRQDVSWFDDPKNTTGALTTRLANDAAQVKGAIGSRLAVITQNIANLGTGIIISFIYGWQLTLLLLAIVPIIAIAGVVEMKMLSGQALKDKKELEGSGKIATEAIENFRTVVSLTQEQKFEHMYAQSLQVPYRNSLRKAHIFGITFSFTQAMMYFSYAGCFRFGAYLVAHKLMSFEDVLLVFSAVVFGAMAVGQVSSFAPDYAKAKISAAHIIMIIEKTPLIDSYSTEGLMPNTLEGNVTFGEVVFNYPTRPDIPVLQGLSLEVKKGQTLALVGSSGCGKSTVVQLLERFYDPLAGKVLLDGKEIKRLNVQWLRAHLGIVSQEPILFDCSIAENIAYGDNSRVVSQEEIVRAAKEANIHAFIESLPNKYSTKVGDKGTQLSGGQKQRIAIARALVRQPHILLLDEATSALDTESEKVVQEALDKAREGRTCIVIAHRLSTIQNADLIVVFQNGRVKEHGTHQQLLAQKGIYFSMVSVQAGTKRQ

Question: Which results are given for `O=C1c2ccccc2C(=O)c2c(NCCCN3CCOCC3)ccc(NCCCN3CCOCC3)c21` [Compound 1c, 1,4-bis-[[3'(4-morpholino)propyl]amino]anthraquinone]?
Answer: minimal effective concentration ([1]; Homo sapiens, NCI/ADR-RES, 100 nM [3H] VLB, 2.5 hours, FIGS. 2 and 3, read-out: lowest concentration which causes a doubling of basal accumulation of vinblastine): 0.5 µM; activity in vinblastine accumulation assay / drug accumulation ([1]; MDR MCF7): greater activity than 1b; also recorded: greatest activity in drug accumulation assays; also recorded: increase vinblastine accumulation in MDR MCF7; also recorded: activity superior to verapamil at concentrations between 0.5 μM and 10 μM; vinblastine accumulation relative to verapamil [2]: comparable or superior to verapamil activity; vinblastine accumulation relative to verapamil [3]: comparable or superior to verapamil activity; inhibition of Vinca alkaloid drug resistance [4]: inhibit Vinca alkaloid drug resistance at nanomolar concentrations; inhibition of drug resistance / MDR phenotype ([4]; MCF7 Adr 10): most potent inhibitor of the MDR phenotype in the MCF7 Adr 10 cell line; also recorded: more potent MDR phenotype inhibitor than 1d; Reversal Factor (VCR) ([4]; [1c] 0.1 μM): 2.3; Reversal Factor (VLB) ([4]; [1c] 0.1 μM): 2.2; Reversal Factor (VCR) ([4]; [1c] 0.25 μM): 5.0; Reversal Factor (VLB) ([4]; [1c] 0.25 μM): 3.5; Reversal Factor (ADR) ([4]; [1c] 0.5 μM): 2.0; Reversal Factor (DNR) ([4]; [1c] 0.5 μM): 1.9; Reversal Factor (VCR) ([4]; [1c] 0.5 μM): 10.4; Reversal Factor (VLB) ([4]; [1c] 0.5 μM): 8.5; Reversal Factor (ADR) ([4]; [1c] 1.0 μM): 3.3; Reversal Factor (DNR) ([4]; [1c] 1.0 μM): 3.2; Reversal Factor (VCR) ([4]; [1c] 1.0 μM): 24.8; Reversal Factor (VLB) ([4]; [1c] 1.0 μM): 9.2; average cell growth in the presence of 1c alone, of the vehicle control ([4]; test concentrations, n=14, 4320 min): greater than 86%; effect on toxicity of vincristine in drug sensitive cells [5]: enhances toxicity of vincristine in drug sensitive cells; Reversal Factor (VCR) ([5]; [1c] 1.0 μM): 1.9; increase of P-glycoprotein phosphorylation [6]: 6.6 fold; increase of MARCKS phosphorylation [7]: 3 fold; casein kinase 2 inhibitory activity [8]: did not inhibit; IC50 ([9]; Homo sapiens, MCF7, tumor cell clonogenic assay, 10-12 days, read-out: Continuous Exposure IC50, MCF7 WT): 800 nM; antiproliferative effect relative to human CFU-GM ([9]; sensitive cancer cells, clonal proliferation assays): approximately 10 times; activity in in vitro assays of serine threonine kinases [10]: does not show significant activity; effect on non-specific binding of [3H] VLB [11]: no effect
